# Measured values reported in patent publication US6525059B1, “Substituted pyrazoles as p38 kinase inhibitors” (G. D. Searle & Company, priority 1998, dated 2003).
# Biological target: T1, human p38 kinase alpha (Homo sapiens, UniProt Q16539)
# T1 construct: The coding region of the human p38a cDNA was obtained by PCR-amplification from RNA isolated from the human monocyte cell line THP.1; GST (N); made in house; host or cells: E. coli DH10B
# Assay: p38 kinase in vitro assay, phosphorylation of biotinylated PHAS-I with gamma 32P-ATP
# Assay type: biochemical
# Details: @ 1.0 uM; read-out: P38 alpha kinase % inhib @ conc.
# Description: The ability of compounds to inhibit human p38 kinase alpha was evaluated using two in vitro assay methods. In the first method activated human p38 kinase alpha phosphorylates a biotinylated substrate, PHAS-I (phosphorylated heat and acid stable protein-insulin inducible), in the presence of gamma ^32P-ATP (^32P-ATP). PHAS-I was biotinylated prior to the assay and provides a means of capturing the substrate which is phosphorylated during the assay. p38 Kinase was activated by MKK6. Compounds were tested in 10 fold serial dilutions over the range of 100 μM to 0.001 μM using 1% DMSO. Each concentration of inhibitor was tested in triplicate.
# All reactions were carried out in 96 well polypropylene plates. Each reaction well contained 25 mM HEPES pH 7.5, 10 mM magnesium acetate and 50 μM unlabeled ATP. […] The reaction proceeded either for one hour or overnight at 30° C.
# Following incubation, 20 μl of reaction mixture was transferred to a high capacity streptavidin coated filter plate (SAM-streptavidin-matrix, Promega) prewetted with phosphate buffered saline. […] Filter plates were air dried and 20 μl of scintillant was added. The plates were sealed and counted.
# T1 sequence (Q16539 whole entry): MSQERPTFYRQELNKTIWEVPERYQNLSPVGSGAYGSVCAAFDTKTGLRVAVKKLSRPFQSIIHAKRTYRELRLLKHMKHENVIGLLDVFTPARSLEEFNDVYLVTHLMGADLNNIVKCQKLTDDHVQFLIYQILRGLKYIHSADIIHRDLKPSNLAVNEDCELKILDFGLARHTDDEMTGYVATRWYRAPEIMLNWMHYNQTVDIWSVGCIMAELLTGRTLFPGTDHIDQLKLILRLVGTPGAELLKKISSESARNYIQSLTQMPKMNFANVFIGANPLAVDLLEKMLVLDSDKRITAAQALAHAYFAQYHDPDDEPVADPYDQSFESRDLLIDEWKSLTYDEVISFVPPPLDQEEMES
row,SMILES,inhibition at 1 µM [%]
1,COc1ccc(NC(=O)NCc2[nH]nc(-c3ccc(F)cc3)c2-c2ccncc2)c(OC)c1 [Example B-0167],40
2,C=CCNC(=O)NCc1[nH]nc(-c2ccc(F)cc2)c1-c1ccncc1 [Example B-0170],43
3,C[C@@H](NC(=O)NCc1[nH]nc(-c2ccc(F)cc2)c1-c1ccncc1)c1ccccc1 [Example B-0176],50

# Same assay, conditions: @ 10.0 uM; read-out: P38 alpha kinase % inhib @ conc.
row,SMILES,inhibition at 10 µM [%]
1,COC(=O)c1ccccc1NC(=O)NCc1[nH]nc(-c2ccc(F)cc2)c1-c1ccncc1 [Example B-0158],58
2,COc1cccc(NC(=O)NCc2[nH]nc(-c3ccc(F)cc3)c2-c2ccncc2)c1 [Example B-0160],59
3,CCOC(=O)C(C)NC(=O)NCc1[nH]nc(-c2ccc(F)cc2)c1-c1ccncc1 (stereo not drawn) [Example B-0165],70
4,COc1ccccc1NC(=O)NCc1[nH]nc(-c2ccc(F)cc2)c1-c1ccncc1 [Example B-0166],45
5,O=C(NCc1[nH]nc(-c2ccc(F)cc2)c1-c1ccncc1)Nc1ccc(Cl)c(Cl)c1 [Example B-0173],33
6,O=C(NCc1[nH]nc(-c2ccc(F)cc2)c1-c1ccncc1)Nc1ccc(F)cc1 [Example B-0174],54
7,CC(C)c1ccc(NC(=O)NCc2[nH]nc(-c3ccc(F)cc3)c2-c2ccncc2)cc1 [Example B-0178],12
8,CC(C)c1ccccc1NC(=O)NCc1[nH]nc(-c2ccc(F)cc2)c1-c1ccncc1 [Example B-0179],27
9,O=C(NCc1[nH]nc(-c2ccc(F)cc2)c1-c1ccncc1)Nc1ccc(-c2ccccc2)cc1 [Example B-0180],34
10,O=C(NCc1[nH]nc(-c2ccc(F)cc2)c1-c1ccncc1)Nc1cc(Cl)ccc1Cl [Example B-0183],12
11,CC(NC(=O)NCc1[nH]nc(-c2ccc(F)cc2)c1-c1ccncc1)c1cccc2ccccc12 (stereo not drawn) [Example B-0184],66
12,CCOC(=O)C(NC(=O)NCc1[nH]nc(-c2ccc(F)cc2)c1-c1ccncc1)C(C)C (stereo not drawn) [Example B-0188],70
13,O=C(NCc1[nH]nc(-c2ccc(F)cc2)c1-c1ccncc1)Nc1cccc(Cl)c1Cl [Example B-0192],12

# Same assay, conditions: read-out: P38 alpha kinase IC50
row,SMILES,IC50 [µM]
1,CC(C)(C)C(=O)NCc1[nH]nc(-c2ccc(F)cc2)c1-c1ccncc1 [Example B-0201],0.29
2,CC1(C)C2CCC1(CS(=O)(=O)NCc1[nH]nc(-c3ccc(F)cc3)c1-c1ccncc1)C(=O)C2 (stereo not drawn) [Example B-0226],0.074
3,CC1(C)C2CCC1(CS(=O)(=O)NCc1[nH]nc(-c3ccc(F)cc3)c1-c1ccncc1)C(=O)C2 (stereo not drawn) [Example B-0227],0.045
4,O=S(=O)(NCc1[nH]nc(-c2ccc(F)cc2)c1-c1ccncc1)c1cc(Cl)ccc1Cl [Example B-0229],< 0.1
5,O=S(=O)(NCc1[nH]nc(-c2ccc(F)cc2)c1-c1ccncc1)c1cccc(Cl)c1 [Example B-0239],5.73
6,Cc1cccc(Cl)c1S(=O)(=O)NCc1[nH]nc(-c2ccc(F)cc2)c1-c1ccncc1 [Example B-0243],0.039
7,Cc1ccc(C)c(S(=O)(=O)NCc2[nH]nc(-c3ccc(F)cc3)c2-c2ccncc2)c1 [Example B-0244],0.02
8,COc1ccc(Cl)cc1S(=O)(=O)NCc1[nH]nc(-c2ccc(F)cc2)c1-c1ccncc1 [Example B-0253],0.061
9,N#Cc1ccc(S(=O)(=O)NCc2[nH]nc(-c3ccc(F)cc3)c2-c2ccncc2)cc1 [Example B-0254],0.12
10,Cc1cc(C)c(C(=O)NCc2[nH]nc(-c3ccc(F)cc3)c2-c2ccncc2)c(C)c1 [Example B-0280],0.86
11,O=C(NCc1[nH]nc(-c2ccc(F)cc2)c1-c1ccncc1)c1ccc(C(F)(F)F)cc1F [Example B-0283],6.66
12,Cc1cccc(C(=O)NCc2[nH]nc(-c3ccc(F)cc3)c2-c2ccncc2)c1 [Example B-0290],0.66
13,O=C(NCc1[nH]nc(-c2ccc(F)cc2)c1-c1ccncc1)c1cccc(F)c1 [Example B-0292],0.22
14,O=C(NCc1[nH]nc(-c2ccc(F)cc2)c1-c1ccncc1)c1cccc(F)c1F [Example B-0293],0.66
